Series [1] in a line: Metabolic stability in human liver microsome assessed as hepatic clearance. It is filed as ADME. As to conditions: liver microsomes.
Series [2] in a line: Lipophilicity, log D of the compound at pH 7.4. As to conditions: buffer. It is filed as physicochemical.
Series [3] in a line: Kinetic solubility of compound. In kind it is physicochemical. As to conditions: read-out: Kinetic_solubility.
Series [4] is described as follows: Volume of distribution at steady state in rat at 1 mg/kg, iv by LC-MS/MS analysis. It is filed as ADME, organism-based. As to conditions: in vivo, read-out: Vdss.
Series [5] is described as follows: Oral bioavailability in rat at 3 mg/kg by LC-MS/MS analysis. It is filed as ADME, organism-based. As to conditions: in vivo.
Series [6] is described as follows: Metabolic stability in rat liver microsome assessed as hepatic clearance. In kind it is ADME. As to conditions: liver microsomes. On the technique in general: Microsomes from liver hold many membrane-bound enzymes, among them those of drug oxidation.
The nature of series [7]: Clearance in rat at 1 mg/kg, iv by LC-MS/MS analysis. In kind it is ADME, organism-based. To be noted: in vivo.
Series [8] can be described thus: Half life in rat at 1 mg/kg, iv by LC-MS/MS analysis. In kind it is ADME, organism-based. To be noted: in vivo.

The structures appear in SMILES notation. In brackets after ≈: the same amount, converted by molar mass. Bounds are passed on as bounds.

Usually logD stands for lipophilicity at a set pH, counting ionised and neutral species. As usually defined, the bioavailability is dose-corrected exposure relative to a reference, in per cent. Read a low bioavailability as little systemic uptake. As usually defined, the clearance is the rate of elimination divided by the concentration. For orientation: half-life means the time in which the quantity being followed falls by half. A lower half-life goes with fast loss.

As for `O=C(NC12CC(c3nnc([C@H]4C[C@@H](OC(F)(F)F)C4)o3)(C1)C2)c1nc2cc(Cl)ccc2o1`, the CLhep predicted in series [1] was under 6 mL/min/kg. Consider `OC(COC1CCC(Cl)C(F)C1)NC12CC(NC(O)CO[C@H]3C[C@@H](C(F)(F)F)C3)(C1)C2` (stereo partly drawn), for which the CLhep predicted in series [1] is 13 mL/min/kg. The logD in series [2] turned out to be 3.1.

Take `O=C(NC12CC(c3nnc([C@H]4C[C@@H](OC(F)(F)F)C4)o3)(C1)C2)C1CCc2cc(Cl)ccc2O1` (stereo partly drawn): the CLhep predicted in series [1] was 12 mL/min/kg.

On to `O=C(COc1ccc(Cl)cc1)NC12CC(NC(=O)COC3CCOC3)(C1)C2` (stereo not drawn), for which the logD in series [2] is 1.8. Moreover, in series [3], the solubility kinetic was 194 µM (≈ 76.6 µg/mL). For the compound `O=C(COc1ccc(Cl)c(F)c1)NC12CC(N3C[C@H]([C@H]4C[C@@H](OC(F)(F)F)C4)OC3=O)(C1)C2`, in series [1], the CLhep predicted is 15 mL/min/kg. On the same count and under the same terms, with `O=C(NC12CC(c3nnc([C@H]4C[C@@H](OC(F)(F)F)C4)o3)(C1)C2)c1cnc2cc(Cl)ccc2c1` the figure was 11 mL/min/kg. In turn, `O=C(COc1ccc(Cl)cc1)NC12CC(NC(=O)COC3CCCC3)(C1)C2` registered a logD in series [2] of 3.4. Besides, the solubility kinetic in series [3] stood at 34 µM (≈ 13.4 µg/mL). For `O=C(COc1ccc(Cl)cc1)NC12CCC(NC(=O)COc3ccc(Cl)cc3)(CC1)CC2` the same measures were 4.5 and under 1 µM. As for `O=C(COc1ccc(Cl)c(F)c1)NC12CC(c3cnn([C@H]4C[C@@H](OC(F)(F)F)C4)n3)(C1)C2`, the CLhep predicted in series [1] was under 6 mL/min/kg. In series [2], `O=C(COc1ccc(Cl)cc1)NC12CC(NC(=O)COC3CC3)(C1)C2` gave a logD of 2.6. Further, the solubility kinetic in series [3] came out at 181 µM (≈ 66 µg/mL). Turning to `O=C(COc1ccc(Cl)cc1)NC12CC(NC(=O)COC3CCC3)(C1)C2`, the logD in series [2] was 2.9. Moreover, the solubility kinetic in series [3] came to 141 µM (≈ 53.4 µg/mL).

In series [2], `O=C(COc1ccc(Cl)cc1)N[C@H]1CC[C@H](NC(=O)COc2ccc(Cl)cc2)CC1` displayed a logD of 3.7. Also, the solubility kinetic in series [3] was under 1 µM. With `O=C(COCC1CCC1)NC12CC(NC(=O)COc3ccc(Cl)cc3)(C1)C2`, in series [2], the logD came to 3.6. In addition, the solubility kinetic in series [3] worked out at 19 µM (≈ 7.46 µg/mL). `O=C(COCC1CC1)NC12CC(NC(=O)COc3ccc(Cl)cc3)(C1)C2` returned a log distribution coefficient (logD) in series [2] of 2.9. For the same compound, the solubility kinetic in series [3] was determined as 184 µM (≈ 69.7 µg/mL).

Regarding `O=C(COc1ccc(Cl)c(F)c1)NC12CC(NC(=O)CO[C@H]3C[C@H](C(F)(F)F)C3)(C1)C2`, the CLhep predicted in series [1] was 13 mL/min/kg. This compound also registered a logD in series [2] of 3.6. For the compound `O=C(COc1ccc(Cl)cc1)NC1CCN(C(=O)COc2ccc(Cl)cc2)CC1`, the logD in series [2] came out at 3.3. Moreover, the solubility kinetic in series [3] turned out to be 5 µM (≈ 2.19 µg/mL). In series [2], `O=C(COc1ccc(Cl)cc1)NC12CCC(NC(=O)COc3ccc(Cl)cc3)(CC1)C2` came in with a logD of 4.6. The solubility kinetic in series [3] was under 1 µM. Take `O=C(COc1ccc(C(F)(F)F)cc1)NC12CC(c3nnc([C@H]4C[C@@H](OC(F)(F)F)C4)o3)(C1)C2`: the CLhep predicted in series [1] was under 6 mL/min/kg; in series [6] it was under 17 mL/min/kg. Also, the Vd in series [4] worked out at 0.26 L/kg. Besides, in series [5], the bioavailability was found to be 39%. The compound also gave a clearance in series [7] of 0.4 mL/min/kg. This compound showed a half-life in series [8] of 22.9 h. For the compound `O=C(COc1ccc(Cl)cc1)NC12CC(NC(=O)COc3ccc(Cl)cc3)(C1)C2`, the logD in series [2] came out at 2.9. For the same compound, the solubility kinetic in series [3] amounted to 2 µM (≈ 0.871 µg/mL). For the compound `O=C(COc1ccc(F)cc1)NC12CC(c3nnc([C@H]4C[C@@H](OC(F)(F)F)C4)o3)(C1)C2`, the CLhep predicted in series [1] was under 6 mL/min/kg.

Values taken from ChEMBL document CHEMBL5543116, “Discovery of DNL343: A Potent, Selective, and Brain-Penetrant eIF2B Activator Designed for the Treatment of Neurodegenerative Diseases” (J Med Chem, 2024).
